Laboratory results as given in patent US20090074795A1, “Methods for addressing ocular diseases through interference with the wnt signaling pathway” (priority 2007, published 2009).

How the values were obtained:
[1] = tested on: primary RCEC; assay: HIF-1 activation and VEGF expression induced by LiCl in primary RCEC; assay type: cell-based, bovine; settings: 50 mM LiCl, 24 hours
Description: Blockade of the wnt pathway by DKK1 down-regulates VEGF and HIF-1 expression and reduces vascular leakage in the retina of diabetic rats. To activate the wnt pathway, primary RCEC were treated with 50 mM LiCl, a specific activator of the wnt pathway, in the presence or absence of 85 ng/ml DKK1, a specific inhibitor of the wnt pathway, or BSA for 24 hours. Hypoxia was used as a positive control for HIF-1 activation. The HIF-1 nuclear translocation, a key step in its activation, was measured by immunocytochemistry. Both LiCl and hypoxia increased nuclear levels of HIF-1α, indicating an increased nuclear translocation.
According to embodiments of experimental data, RCEC were exposed to normoxia (FIG. 17A), hypoxia (1% O2) (FIG. 17B), 50 mM LiCl with BSA (FIG. 17C), or 50 mM LiCl plus 85 ng/ml DKK1 (FIG. 17D) for 24 hours. The nuclear translocation of HIF-1α was determined by immunocytochemistry with an antibody against HIF-1α. […] In FIG. 17E, the total levels of VEGF and HIF-1α were determined by western blot analysis with an antibody against HIF-1α or VEGF.

[2] = tested on: bovine retinal capillary endothelial cells (BRCEC); assay: β-catenin activation by high glucose in BRCEC; assay type: cell-based; settings: 30 mM glucose with 10 μM aminoguanidine, 24 h
Description: To elucidate the mechanism for of the wnt pathway activation induced by high glucose, primary bovine retinal capillary endothelial cells (BRCEC) were treated with low glucose (5 mM glucose and 20 mM mannitol), high glucose (30 mM glucose), and high glucose together with a known anti-oxidant (30 mM glucose with 10 μM aminoguanidine) for 24 h. The nuclear levels of β-catenin were examined by immunocytochemistry using the antibody for β-catenin. […] The nuclear translocation of β-catenin induced by high glucose was blocked by aminoguanidine.
According to embodiments of experimental data, cultured BRCEC were exposed to 5 mM glucose plus 20 mM mannitol as control (FIG. 12A), 30 mM glucose (FIG. 12B), and 30 mM glucose plus 10 μM aminoguanidine (AG) (FIG. 12C) for 24 hours. […] In FIG. 12D, protein levels of β-catenin were determined using western blot analysis, and normalized by β-actin levels. Each lane of FIG. 12D represents an individual culture dish.

SMILES	nuclear levels of HIF-1α ([1]; immunocytochemistry)	expression of HIF-1α ([1]; western blot)	expression of VEGF ([1]; western blot)	nuclear translocation of β-catenin induced by high glucose ([2]; immunocytochemistry)	total levels of β-catenin increased by high glucose ([2]; western blot)
[Cl-].[Li+] [LiCl, reference compound]	increased	up-regulated	up-regulated	–	–
N=C(N)NN [aminoguanidine]	–	–	–	blocked	blocked
